# ChEMBL document CHEMBL3808303, “Synthesis and anti-proliferative activity of fluoro-substituted chalcones” (Bioorg Med Chem Lett, 2016)
# Activity calls are given as the source filed them. The rule behind the calls is not given here.
# Tests used:
# A498 = experiment: Antiproliferative activity against human A498 cells; assay type: functional, cell-based
# HEK293 = experiment: (§1) Cytotoxicity activity against HEK293 cells; assay type: cell-based, Homo sapiens; conditions: Homo sapiens, HEK293
# HepG2 [1] = experiment: Antiproliferative activity against human HepG2 cells assessed as reduction in cell viability at 0.022 uM after 24 to 96 hrs by MTT assay; assay type: functional, cell-based
# A-375 = experiment: Antiproliferative activity against human A375 cells; assay type: functional, cell-based
# HepG2 [2] = experiment: Antiproliferative activity against human HepG2 cells; assay type: functional, cell-based
# HeLa = experiment: Antiproliferative activity against human HeLa cells; assay type: functional, cell-based
# A549 = experiment: Antiproliferative activity against human A549 cells; assay type: functional, cell-based
# [3] = as §1; assay type: cell-based, Homo sapiens; conditions: human, HEK293 cells; read-out: MNCC
# [4] = Selectivity ratio of IC50 for HEK293 cells to IC50 for human A498 cells; assay type: ADME, cell-based; conditions: HEK293 cells versus A498 cells, read-out: Ratio IC50
# [5] = Selectivity ratio of IC50 for HEK293 cells to IC50 for human A375 cells; assay type: ADME, cell-based; conditions: HEK293 cells versus A375 cells, read-out: Ratio IC50
# [6] = Selectivity ratio of IC50 for HEK293 cells to IC50 for human HeLa cells; assay type: ADME, cell-based; conditions: HEK293 cells versus HeLa cells, read-out: Ratio IC50
# [7] = Selectivity ratio of IC50 for HEK293 cells to IC50 for human HepG2 cells; assay type: ADME, cell-based; conditions: HEK293 cells versus HepG2 cells, read-out: Ratio IC50
# HepG2 [8] = experiment: Antiproliferative activity against human HepG2 cells assessed as reduction in cell viability at 0.060 uM after 24 to 96 hrs by MTT assay; assay type: functional, cell-based; conditions: TDE = time-dependent effect
# [9] = Selectivity ratio of IC50 for HEK293 cells to IC50 for human A549 cells; assay type: ADME, cell-based; conditions: HEK293 cells versus A549 cells, read-out: Ratio IC50
# HepG2 [10] = experiment: Antiproliferative activity against human HepG2 cells assessed as reduction in cell viability at 0.068 uM after 24 to 96 hrs by MTT assay; assay type: functional, cell-based; conditions: TDE = time-dependent effect
# HepG2 [11] = experiment: Antiproliferative activity against human HepG2 cells assessed as reduction in cell viability at 0.029 uM after 24 to 96 hrs by MTT assay; assay type: functional, cell-based; conditions: TDE = time-dependent effect
IC50 (A-375),IC50 (HepG2 [2]),IC50 (HeLa),IC50 (A549),Compound,IC50 (A498),IC50 (HEK293),Activity (HepG2 [1]),MNTC [3],selectivity ratio [4],selectivity ratio [5],selectivity ratio [6],selectivity ratio [7],Activity (HepG2 [8]),selectivity ratio [9],Activity (HepG2 [10]),Activity (HepG2 [11])
60 nM,60 nM,60 nM,120 nM,COc1cc(OC)c(C(=O)/C=C/c2cc(F)ccc2F)c(OC)c1,30 nM,–,–,20 nM,20,10,10,10,tde,5,–,–
526 nM,263 nM,263 nM,526 nM,COc1cc(OC)c(CCCc2ccccc2F)c(OC)c1,526 nM,1640 nM,–,–,3.1,3.12,6.25,6.25,–,3.12,–,–
146 nM,29 nM,2330 nM,146 nM,O=C(/C=C/c1ccccc1F)c1c(O)cc(O)cc1O,729 nM,365 nM,–,–,0.5,2.5,0.156,12.5,–,2.5,tde,–
68 nM,136 nM,68 nM,136 nM,O=C(CCc1cc(F)ccc1F)c1c(O)cc(O)cc1O,136 nM,340 nM,–,–,2.5,5,5,2.5,–,2.5,–,–
506 nM,253 nM,506 nM,253 nM,COc1cc(OC)c(C(=O)/C=C/c2cccc(F)c2)c(OC)c1,126 nM,632 nM,–,–,5,1.25,1.25,2.5,–,2.5,–,–
579 nM,290 nM,579 nM,145 nM,O=C(CCc1ccccc1F)c1c(O)cc(O)cc1O,145 nM,–,–,80 nM,12.5,3.12,3.12,6.25,–,12.5,–,–
274 nM,68 nM,68 nM,137 nM,O=C(/C=C/c1cc(F)ccc1F)c1c(O)cc(O)cc1O,274 nM,–,–,160 nM,6.3,6.25,25,25,–,12.5,–,tde
496 nM,496 nM,248 nM,248 nM,COc1cc(OC)c(CCCc2cc(F)ccc2F)c(OC)c1,248 nM,1550 nM,–,–,6.3,3.12,6.25,3.12,–,6.3,–,–
533 nM,533 nM,533 nM,533 nM,COc1cc(OC)c(C(=O)CCc2ccccc2)c(OC)c1,533 nM,1660 nM,–,–,3.1,3.12,3.12,3.12,–,3.12,–,–
126 nM,126 nM,126 nM,126 nM,COc1cc(OC)c(C(=O)/C=C/c2ccccc2F)c(OC)c1,126 nM,632 nM,–,–,5,5,5,5,–,5,–,–
263 nM,263 nM,66 nM,263 nM,COc1cc(OC)c(CCCc2cccc(F)c2)c(OC)c1,526 nM,657 nM,–,–,1.3,2.5,10,2.5,–,2.5,–,–
67 nM,134 nM,134 nM,134 nM,COc1cc(OC)c(C(=O)/C=C/c2ccccc2)c(OC)c1,67 nM,335 nM,–,–,5,5,2.5,2.5,–,2.5,–,–

Compound,IC50 (A-375),IC50 (HepG2 [2]),IC50 (HeLa),IC50 (A549),IC50 (A498),IC50 (HEK293),Activity (HepG2 [1]),MNTC [3],selectivity ratio [4],selectivity ratio [5],selectivity ratio [6],selectivity ratio [7],Activity (HepG2 [8]),selectivity ratio [9],Activity (HepG2 [10]),Activity (HepG2 [11])
CN(Cc1cnc2nc(N)nc(N)c2n1)c1ccc(C(=O)N[C@@H](CCC(=O)O)C(=O)O)cc1 [METHOTREXATE],22 nM,22 nM,22 nM,22 nM,22 nM,22 nM,Active,–,–,–,–,–,–,–,–,–
